According to article PMC9546084, “Effects of Unsuppressed Endogenous Insulin on Pharmacokinetics and/or Pharmacodynamics of Study Insulin in the Healthy: A Retrospective Study” (Clinical Pharmacology in Drug Development, 2022):

What was measured:
[1] = PK corrected by C-peptide; cited from earlier work
Description: In studies in which specific assays for the tested insulin are lacking, C‐peptide was always used to correct endogenous insulin.[37], [38] Some researchers[39] still doubted the use of C‐peptide to correct endogenous insulin because some PK parameters were not consistent (eg, a peak of glargine in plasma occurring at 12 hours[40] differs from those observed in subjects with type 1 diabetes where the increase occurs between ≈3 and 6 hours after the first injection[41] and at steady state[42]). Owens[19] reported the exogenous insulin estimated from C‐peptide was nearly the same as what was true ...

[2] = adverse reactions/events during clamp and follow-up; format: in vivo, healthy Chinese male volunteers; details: 33 healthy men; 0.2 IU/kg s.c.; clamp procedures and follow-up period
Excerpt: Thirty‐three healthy male volunteers (22 in group A and 11 in group B) undergoing a manual euglycemic clamp study were enrolled in this study.

[3] = manual euglycemic clamp, glucose infusion rate (PD) after subcutaneous insulin aspart; format: in vivo, healthy Chinese male volunteers; details: for GIRmax (maximum glucose infusion rate): 0.2 IU/kg NovoRapid s.c., 8-hour manual euglycemic clamp; for GIRmax (maximum glucose infusion rate) / tGIRmax (time of GIRmax) / AUCGIR,0-8h: mean ± SD; for GIR AUC from time 0.5 to 2 hours after correction for clamped glucose from 0.5 to 2 hours / AUCGIR,0-8h after correction for the overall clamped glucose / tGIRmax (time of GIRmax) / AUCGIR,0-8h: 0.2 IU/kg s.c.; for AUCGIR,0-8h after correction for the overall clamped glucose: analysis of variance with clamped glucose as covariate; for AUCGIR,0-8h: uncorrected
Description: (§1) From 3 days before the dosing day on, participants were instructed to abstain from drinking alcohol, smoking tobacco, engaging in strenuous exercise, and ingesting caffeine. Participants came to the research center at approximately 6:00 PM the day before drug administration to ensure an overnight fasting condition of 10 to 12 hours the next morning. Throughout the clamp, the subjects remained fasting and in a supine position. A 20‐gauge polyethylene cannula was inserted into an antecubital vein for infusion of 20% dextrose, and a second 18‐gauge catheter was inserted retrogradely into a wrist vein on the dorsum of the hand to draw blood. The hand for blood drawing was maintained continuously in a heated blanket at 55 to 65°C, allowing sampling of arterialized venous blood. After recording the basal blood glucose level (defined as the mean of the glucose measurement at −30, −20, and −10 minutes), the subjects received a 0.2 IU/kg dose of NovoRapid (Novo Nordisk, Bagsværd, Denmark) by subcutaneous injection into a lifted abdominal skin fold. Blood samples were obtained at the bedside for immediate determination of whole blood glucose concentrations every 5 minutes from 0 to 240 minutes and every 10 minutes from 240 to 480 minutes. During the manual euglycemic clamp procedure, the glucose infusion rate (GIR) was adjusted on the basis of the obtained glucose measurements to maintain euglycemia. A 4‐mL blood sample was collected at each of the following points for analysis of C‐peptide, human insulin, and IAsp levels: −30 and 0 minutes (before dosing) and 10, 20, 30, 40, 50, 60, 90, 120, 150, 180, 210, 240, 270, 300, 360, 420, and 480 minutes after dosing. The baselines for each of C‐peptide, human insulin, and IAsp were defined as the mean of the −30 and 0 minute (before dosing) measurements.
(§2) Whole blood glucose concentrations were tested with a glucose analyzer (Biosen C_line GP+, Neckar Healthcare, Co., Ltd., Magdeburg, Germany) using an automated glucose oxidase technique with a measuring range of 9 to 900 mg/dL and a high precision of 1.5%. Human insulin levels were determined using an ultrasensitive enzyme‐linked immunosorbent assay (ELISA) with monoclonal antibodies that have little or no cross‐reactivity to insulin analogs whose ranges of quantification were 0.0065 to 0.87 ng/mL for human insulin.[22] C‐peptide levels were analyzed using a solid‐phase 2‐site ELISA method based on the direct sandwich technique in which 2 monoclonal antibodies are directed against separate antigenic determinants on the C‐peptide molecule with a measuring range of 0.06 to 9 ng/mL, with an intra‐assay coefficient of variation of 2.87% to 4.50%.[23] IAsp concentrations were assessed by means of an ultra‐performance liquid chromatography–tandem mass spectrometry method, [25] at Covance Laboratories in Shanghai that had no detectable cross‐reactivity with human insulin. Solid‐phase extraction was performed. Liquid chromatography separation was achieved using an Acquity UPLC CSH C18+ column (50 × 2.1 × 1.7 μm; Waters Corp., Milford, Massachusetts). A 20‐μL injection with a 0.60 mL/min flow of water with 0.1% of acetic acid (solvent A) and acetonitrile with 0.1% of acetic acid (solvent B) was used. The gradient elution was as follows: the initial 17.5% B was increased to 29.5% over 3.0 minutes, 29.5% to 50.0% over 0.5 minutes, 50% to 98% over 0.5 minutes, remained at 98% for 1.5 minutes, and returned to initial conditions over 0.5 minute. A mass spectrometer used in the positive ionization mode (ESI+) was used for the analysis of the compounds. […] The cone voltage and collision energy were adjusted to maximize the intensity of the protonated ion and to optimize the signal of aspart insulin: m/z 1133.4→971.8 and for the internal standard bovine insulin 1123.5→963.8. The lower limit of quantification was 0.2 ng/mL, the inter‐ and intravariability were 7.0% and 7.9%, respectively. […]

[4] = pharmacokinetics of insulin aspart during the euglycemic clamp (UPLC-MS/MS); format: in vivo, healthy Chinese male volunteers; details: 0.2 IU/kg s.c., mean ± SD; for CIAsp,max (maximum plasma concentration of IAsp): UPLC-MS/MS
Description: as §1, §2

| Substance | time of peak of glargine in plasma [1] [h] | adverse reaction after injection [2] | GIRmax (maximum glucose infusion rate) ([3]; group A ((CPpostdosing)max > CPbaseline, n = 22)) [mg/kg/min] | GIR AUC from time 0.5 to 2 hours after correction for clamped glucose from 0.5 to 2 hours ([3]; group A (n = 22)) [mg/kg] | AUCGIR,0-8h after correction for the overall clamped glucose ([3]; group A (n = 22)) [mg/kg] | tGIRmax (time of GIRmax) ([3]; group A (n = 22)) [min] | AUCGIR,0-8h ([3]; group A (n = 22)) [mg/kg] | GIRmax (maximum glucose infusion rate) ([3]; group B ((CPpostdosing)max ≤ CPbaseline, n = 11)) [mg/kg/min] | GIR AUC from time 0.5 to 2 hours after correction for clamped glucose from 0.5 to 2 hours ([3]; group B (n = 11)) [mg/kg] | AUCGIR,0-8h after correction for the overall clamped glucose ([3]; group B (n = 11)) [mg/kg] | tGIRmax (time of GIRmax) ([3]; group B (n = 11)) [min] | AUCGIR,0-8h ([3]; group B (n = 11)) [mg/kg] | CIAsp,max (maximum plasma concentration of IAsp) ([4]; group A (n = 22)) [ng/mL] | AUCIAsp,0-8h ([4]; group A (n = 22)) [ng·min/mL] | time of CIAsp,max ([4]; group A (n = 22)) [min] | CIAsp,max (maximum plasma concentration of IAsp) ([4]; group B (n = 11)) [ng/mL] | AUCIAsp,0-8h ([4]; group B (n = 11)) [ng·min/mL] | time of CIAsp,max ([4]; group B (n = 11)) [min] |
| --- | --- | --- | --- | --- | --- | --- | --- | --- | --- | --- | --- | --- | --- | --- | --- | --- | --- | --- |
| glargine | 12 | – | – | – | – | – | – | – | – | – | – | – | – | – | – | – | – | – |
| insulin aspart [IAsp] | – | no adverse reaction in any subject | 8.46 ± 2.43 | 596 ± 38 | 1789 ± 107 | 111 ± 40.6 | 1815 ± 551 | 7.90 ± 1.68 | 520 ± 56 | 1380 ± 157 | 113 ± 33.9 | 1327 ± 306 | 4.72 ± 1.46 | 527 ± 97.1 | 44.8 ± 11.0 | 5.53 ± 1.61 | 543 ± 97.2 | 47.3 ± 11.0 |
